From patent US7550589B2, “6-(2-alkyl-phenyl)-pyrido[2,3-D]pyrimidines useful as protein kinase inhibitors” (Hoffman-La Roche Inc., priority 2004, dated 2009)

Tests used:
Lck (p56^lck) = molecular target: T1, Lck (p56^lck) (Homo sapiens, UniProt P06239); assay: SRC-Inhibitor-Assay, time-resolved fluorescence kinase assay (Lck); type: biochemical; conditions: ATP 5 μM; peptide 10 μM; enzyme 2.5 U/ml; pre-incubated 15 min at 15° C.
T1 construct: purchased UBI, Upstate Biotech, Inc
Text: (§1) The activity of the compounds according to this invention as inhibitors for the src-family tyrosine kinases was shown by using the following assay.
(§2) SRC-Inhibitor-Assay Parameters:
(§3) Eu-labelled Phosphotyrosine Antibody: for Lck Cisbio Mab PT66-K, • for Src EG&G Wallac PT66 Eu-W1024 (all commercially available).
(§4) Peptides: Ro: NH2-A-E-E-E-I-Y-G-E-F-E-A-K-K-K-K-CONH2, and • Ja133-Ro: Ja133-G-Aminocaprylic acid-A-E-E-E-I-Y-G-E-F-E-A-K-K-K-K-CONH2, wherein Ja133 is LightCycler-Red 640-N-hydroxy succinimide ester; • whereby both peptides were synthesized by an optimized solid phase peptide synthesis protocol (Merrifield, Fed. Proc. Fed. Amer. Soc. Exp. Biol. 21 (1962) 412) on a Zinsser SMP350 peptide synthesizer. Shortly, the peptide was assembled on 160 mg (22.8 μmol scale) of a Rink-Linker modified polystyrene solid phase by repeatedly conjugating an twenty fold excess of amino acids each protected by temporary piperidine labile Fmoc- and permanent acid labile tert-Bu—, BOC- and O-tert-Bu-groups depending on the side chain function. The substrate sequence AEEEIYGEFEAKKKK was N-terminal additionally mounted with the spacer amino acids Aminocaprylic acid and Glycin. After cleavage of the N-terminal temporary protecting group the still attached and protected peptide was labeled with a 1.5 fold amount of LightCycler-Red 640-N-hydroxy succinimide ester (purchased from Roche Diagnostics GmbH) and triethylamine. After 3 hrs. the resin was washed with Dimethylformamide and Isopropanol until the eluates of the blue resin got colourless. […] The substrate was finally isolated by a preparative reverse phase HPLC purification. The purification yielded 12.2 mg RP-HPLC single peak pure blue material (lyophilisate). The identity was proven by MALDI mass spectroscopy [2720.0].
(§5) Enzymes: Upstate Lck (p56^lck, active), Upstate Src (p60^c-src, partially purified) were purchased from UBI, Upstate Biotech, Inc.
(§6) Time-resolved Fluorescence Assay: Reader: Perkin Elmer, Wallac Viktor 1420-040 multilabel counter; Liquid handling system: Beckman Coulter, Biomek 2000.
(§7) ATP, Tween™ 20, 4-(2-hydroxyethyl)-1-piperazineethanesulfonic acid (HEPES) were purchased from Roche Molecular Biochemicals, MgCl2 and MnCl2 were purchased from Merck Eurolab, Tris(2-carboxyethyl)phosphine hydrochloride (TCEP) was purchased from Pierce, 384 Well low volume fluorescence plates was purchased from Falcon.
(§8) At first the enzyme is pre-incubated for 15 min. at 15° C. in aqueous solution with corresponding amounts of inhibitors according to this invention. Then the phosphorylation reaction is started by adding a reaction mixture, containing ATP, Peptide and PT66, and subsequent shaking. The proceeding of this reaction is immediately monitored using time resolved fluorescence spectroscopy in a suitable well plate reader.
(§9) The IC50-values can be obtained from the reaction rates by using a non-linear curve fit (XLfit software (ID Business Solution Ltd., Guilford, Surrey, UK))

Src (p60^c-src) = molecular target: T2, Src (p60^c-src) (Homo sapiens, UniProt P12931); assay: SRC-Inhibitor-Assay, time-resolved fluorescence kinase assay (Src); type: biochemical; conditions: ATP 5 μM; peptide 10 μM; enzyme 2.5 U/ml; pre-incubated 15 min at 15° C.
T2 construct: purchased UBI, Upstate Biotech, Inc
T2 sequence (P12931 whole entry): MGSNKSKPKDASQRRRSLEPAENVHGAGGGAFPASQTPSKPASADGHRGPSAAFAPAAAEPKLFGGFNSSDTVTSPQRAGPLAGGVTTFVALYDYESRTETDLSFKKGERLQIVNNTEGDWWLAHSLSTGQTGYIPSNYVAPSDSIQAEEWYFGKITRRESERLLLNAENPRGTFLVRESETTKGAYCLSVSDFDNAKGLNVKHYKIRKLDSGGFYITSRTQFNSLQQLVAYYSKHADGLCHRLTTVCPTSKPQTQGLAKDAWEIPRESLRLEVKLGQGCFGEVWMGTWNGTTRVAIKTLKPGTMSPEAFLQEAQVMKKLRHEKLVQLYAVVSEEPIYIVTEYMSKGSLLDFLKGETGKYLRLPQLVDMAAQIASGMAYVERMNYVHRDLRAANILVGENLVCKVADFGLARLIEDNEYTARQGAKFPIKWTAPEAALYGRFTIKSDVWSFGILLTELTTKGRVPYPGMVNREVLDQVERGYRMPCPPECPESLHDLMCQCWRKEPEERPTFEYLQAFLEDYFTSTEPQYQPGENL
Text: as §1, §2, §3, §4, §5, §6, §7, §8, §9

T1 sequence (P06239 whole entry, species assumed): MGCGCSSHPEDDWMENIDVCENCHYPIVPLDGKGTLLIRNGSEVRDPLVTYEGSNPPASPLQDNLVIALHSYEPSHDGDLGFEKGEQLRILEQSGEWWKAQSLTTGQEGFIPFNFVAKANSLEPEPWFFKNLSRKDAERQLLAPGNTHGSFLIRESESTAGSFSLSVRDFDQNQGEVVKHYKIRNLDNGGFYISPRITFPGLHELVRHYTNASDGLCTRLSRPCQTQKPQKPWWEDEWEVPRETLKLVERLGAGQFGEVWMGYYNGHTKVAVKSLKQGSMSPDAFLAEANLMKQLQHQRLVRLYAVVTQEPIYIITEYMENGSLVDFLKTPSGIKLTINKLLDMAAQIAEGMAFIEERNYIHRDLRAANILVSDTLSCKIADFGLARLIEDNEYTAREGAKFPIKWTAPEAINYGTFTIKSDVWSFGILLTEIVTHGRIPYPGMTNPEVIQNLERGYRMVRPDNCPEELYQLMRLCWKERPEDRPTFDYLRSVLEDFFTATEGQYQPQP

Row | IC50 (Lck (p56^lck)) [nM] | IC50 (Src (p60^c-src)) [nM] | SMILES
1 | 8 | 0.7 | CC(=O)Nc1cccc(Nc2ncc3cc(-c4ccccc4C)c(C(=O)NC[C@H]4CCCN4)nc3n2)c1 [Example 1, (R)-2-(3-Acetylamino-phenylamino)-6-o-tolyl-pyrido[2,3-d]pyrimidine-7-carboxylic acid (pyrrolidin-2-ylmethyl)-amide]
2 | 20 to 50 | 5 to 50 | CS(=O)(=O)NCCNC(=O)c1nc2nc(Nc3ccc4c(c3)S(=O)(=O)CCO4)ncc2cc1-c1ccccc1C(F)(F)F [Example 2, 2-(4,4-Dioxo-3,4-dihydro-2H-4lambda*6*-benzo[1,4]oxathiin-6-ylamino)-6-(2-trifluoromethyl-phenyl)-pyrido[2,3-d]pyrimidine-7-carboxylic acid (2-methanesulfonylamino-ethyl)-amide]
3 | 11.8 | 1 | CC(=O)Nc1cccc(Nc2ncc3cc(-c4ccccc4C)c(C(=O)NCCNS(C)(=O)=O)nc3n2)c1 [Example 3, 2-(3-Acetylamino-phenylamino)-6-o-tolyl-pyrido[2,3-d]pyrimidine-7-carboxylic acid (2-methanesulfonylamino-ethyl)-amide]
4 | 1 to 20 | 0.5 to 5 | Cc1ccccc1-c1cc2cnc(Nc3ccc(N4CCOCC4)cc3)nc2nc1C(=O)NCCNS(C)(=O)=O [Example 5, 2-(4-Morpholin-4-yl-phenylamino)-6-o-tolyl-pyrido[2,3-d]pyrimidine-7-carboxylic acid (2-methanesulfonylamino-ethyl)-amide]
5 | 1 to 20 | 0.5 to 5 | Cc1ccccc1-c1cc2cnc(Nc3ccc(N4CCOCC4)cc3)nc2nc1C(=O)NC[C@H]1CCCN1 [Example 7, (R)-2-(4-Morpholin-4-yl-phenylamino)-6-o-tolyl-pyrido[2,3-d]pyrimidine-7-carboxylic acid (pyrrolidin-2-ylmethyl)-amide]
6 | 1 to 20 | 0.5 to 5 | CNCCNC(=O)c1nc2nc(Nc3cccc(NC(C)=O)c3)ncc2cc1-c1ccccc1C [Example 8, 2-(3-Acetylamino-phenylamino)-6-o-tolyl-pyrido[2,3-d]pyrimidine-7-carboxylic acid (2-methylamino-ethyl)-amide]
7 | 1 to 20 | 0.5 to 5 | CNCCNC(=O)c1nc2nc(Nc3cccc(NS(C)(=O)=O)c3)ncc2cc1-c1ccccc1C [Example 9, 2-(3-Methanesulfonylamino-phenylamino)-6-o-tolyl-pyrido[2,3-d]pyrimidine-7-carboxylic acid (2-methylamino-ethyl)-amide]
8 | 1 to 20 | 0.5 to 5 | CS(=O)(=O)NCCNC(=O)c1nc2nc(Nc3ccc(N4CCOCC4)cc3)ncc2cc1-c1ccccc1C(F)(F)F [Example 11, 2-(4-Morpholin-4-yl-phenylamino)-6-(2-trifluoromethyl-phenyl)-pyrido[2,3-d]pyrimidine-7-carboxylic acid (2-methanesulfonylamino-ethyl)-amide]
9 | 1 to 20 | 0.5 to 5 | O=C(NC[C@H]1CCCN1)c1nc2nc(Nc3ccc(N4CCOCC4)cc3)ncc2cc1-c1ccccc1C(F)(F)F [Example 14, (R)-2-(4-Morpholin-4-yl-phenylamino)-6-(2-trifluoromethyl-phenyl)-pyrido[2,3-d]pyrimidine-7-carboxylic acid (pyrrolidin-2-ylmethyl)-amide]
10 | 1 to 20 | 0.5 to 5 | CC(=O)Nc1cccc(Nc2ncc3cc(-c4ccccc4C(F)(F)F)c(C(=O)NC[C@H]4CCCN4)nc3n2)c1 [Example 15, (R)-2-(3-Acetylamino-phenylamino)-6-(2-trifluoromethyl-phenyl)-pyrido[2,3-d]pyrimidine-7-carboxylic acid (pyrrolidin-2-ylmethyl)-amide]
11 | 20 to 50 | 5 to 50 | O=C(NC[C@H]1CCCN1)c1nc2nc(Nc3ccc4c(c3)S(=O)(=O)CCO4)ncc2cc1-c1ccccc1C(F)(F)F [Example 17, (R)-2-(4,4-Dioxo-3,4-dihydro-2H-4lambda*6*-benzo[1,4]oxathiin-6-ylamino)-6-(2-trifluoromethyl-phenyl)-pyrido[2,3-d]pyrimidine-7-carboxylic acid (pyrrolidin-2-ylmethyl)-amide]
